US4755508A, “Benzodiazepine analogs and use as antogonists of gastrin and cholecystokinin” (Merck & Co., Inc., priority 1987, dated 1988)
“Also recorded” adds a separate entry of the source. Read-outs that look alike come from different tables or passages of the source. Where a SMILES comes first, the peptide text is derived from it. [ ]: non-standard residue; d: D form. The star is where a group is joined. sY = N[C@@H](Cc1ccc(OS(=O)(=O)O)cc1)C(=O)O; Cbz = O=C(OCc1ccccc1)*; Boc = CC(C)(C)OC(=O)*

Experiments:
CCK receptor = conditions: structure-function studies; cited from earlier work
[1] = target: T1, CCK receptor (rat pancreas membranes) (Rattus norvegicus, UniProt P30551); experiment: 125I-CCK receptor binding (pancreas); conditions: for effect on the 125I-CCK receptor binding assay: added as protease inhibitor
T1 construct: The whole pancreas was dissected free of fat tissue and was homogenized; from tissue; host or cells: pancreas of male Sprague-Dawley rats (membranes)
T1 sequence (P30551 1-444): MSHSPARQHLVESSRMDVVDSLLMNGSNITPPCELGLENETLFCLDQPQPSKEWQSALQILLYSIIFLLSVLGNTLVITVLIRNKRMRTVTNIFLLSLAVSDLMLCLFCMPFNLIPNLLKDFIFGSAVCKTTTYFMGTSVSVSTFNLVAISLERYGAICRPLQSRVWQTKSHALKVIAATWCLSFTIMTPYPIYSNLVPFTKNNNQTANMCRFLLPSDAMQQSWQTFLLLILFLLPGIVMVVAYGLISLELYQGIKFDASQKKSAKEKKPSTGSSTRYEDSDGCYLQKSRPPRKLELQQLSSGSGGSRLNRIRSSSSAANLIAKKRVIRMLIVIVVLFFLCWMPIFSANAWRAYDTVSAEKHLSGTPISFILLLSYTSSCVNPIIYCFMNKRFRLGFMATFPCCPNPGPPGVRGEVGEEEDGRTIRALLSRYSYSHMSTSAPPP
Method: CCK-33 was radiolabeled with ^125 I-Bolton Hunter reagent (2000 Ci/mmole) as described by Sankara et al. (J. Biol. Chem. 254: 9349-9351, 1979). Receptor binding was performed according to Innis and Snyder (Proc. Natl. Acad. Sci. 77: 6917-6921, 1980) with the minor modification of adding the additional protease inhibitors, phenylmethane sulfonyl fluoride and o-phenanthroline. The latter two compounds have no effect on the ^125 I-CCK receptor binding assay.
Male Sprague-Dawley rats (200-350 g) were sacrificed by decapitation. The whole pancreas was dissected free of fat tissue and was homogenized in 20 volumes of ice-cold 50 mM, Tris HCl (pH 7.7 at 25° C.) with a Brinkmann Polytron PT 10. The homogenates were centrifuged at 48,000 g for 10 min. Pellets were resuspended in Tris Buffer, centrifuged as above and resuspended in 200 volumes of binding assay buffer (50 mM Tris HCl, pH 7.7 at 25° C., 5 mM dithiothrietol, 0.1 mM bacitracin, 1.2 mM phenylmethane sulfonyl fluoride and 0.5 mM o-phenanthroline). […] All assays were run in duplicate or triplicate. The reaction mixtures were incubated at 37° C. for 30 minutes and centrifuged in a Beckman Microfuge (4 minutes) immediately after adding 1 ml of ice-cold incubation buffer. The supernatant was aspirated and discarded, pellets were counted with a Beckman gamma 5000. For Scatchard analysis (Ann. N.Y. Acad. Sci. 51: 660, 1949), ^125 I-CCK-33 was progressively diluted with increasing concentrations of CCK-33

gastrin = conditions: in vitro; cited from earlier work
[2] = target: T2, CCK receptor (guinea pig cerebral cortex) (Cavia porcellus, UniProt H0VZC5); experiment: 125I-CCK receptor binding (brain); conditions: 125I-CCK-33, guinea pig cerebral cortex, 25° C., 2 hours
T2 construct: Cerebral cortex was dissected and used as a receptor source; from tissue; host or cells: cerebral cortex of male Hartley guinea pigs (membranes)
T2 sequence (H0VZC5 entry or part of it): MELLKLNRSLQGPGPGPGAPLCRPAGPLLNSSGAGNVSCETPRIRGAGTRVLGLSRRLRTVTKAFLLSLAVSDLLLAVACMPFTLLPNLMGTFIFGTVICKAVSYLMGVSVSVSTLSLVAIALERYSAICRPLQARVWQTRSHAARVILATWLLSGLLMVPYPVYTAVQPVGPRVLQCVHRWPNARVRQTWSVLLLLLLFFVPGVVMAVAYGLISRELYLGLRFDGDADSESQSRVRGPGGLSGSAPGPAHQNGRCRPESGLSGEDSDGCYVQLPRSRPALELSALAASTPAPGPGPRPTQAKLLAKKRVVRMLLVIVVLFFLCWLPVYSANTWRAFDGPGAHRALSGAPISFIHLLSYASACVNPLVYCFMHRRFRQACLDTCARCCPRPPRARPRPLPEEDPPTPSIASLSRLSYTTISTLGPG
Method: CCK-33 was radiolabeled and the binding was performed according to the description for the pancreas method with modifications according to Saito et al., J. Neurochem. 37, 483-490, 1981.
Male Hartley guinea pigs (300-500 g) were sacrificed by decapitation and the brains were removed and placed in ice-cold 50 mM, Tris HCl plus 7.58 g/l Trizma-7.4 (pH 7.4 at 25° C.). Cerebral cortex was dissected and used as a receptor source. Each gram of fresh guinea pig brain tissue was homogenized in 10 ml of Tris Trizma buffer with a Brinkman polytron PT-10. The homogenates were centrifuged at 42,000 g for 15 min. […] All assays were run in duplicate or triplicate. The reaction mixtures were incubated at 25° C. for 2 hours and centrifuged in a Beckman Microfuge (4 minutes) immediately after adding 1 ml of ice-cold incubation buffer. The supernatant was aspirated and discarded, pellets were counted with a Beckman gamma 5000.

gastrin receptor = target: T3, gastrin receptor (Cavia porcellus, UniProt H0VZC5); experiment: Gastrin receptor binding in guinea pig gastric glands; conditions: guinea pig gastric mucosal glands
T3 construct: Gastric mucosa from guinea pigs (300-500 g body weight, male Hartley) were washed thoroughly and minced; from tissue; host or cells: gastric mucosal glands of male Hartley guinea pigs
T3 sequence (H0VZC5 entry or part of it): as above
Method: Gastrin antagonist activity of compounds of Formula I is determined using the following assay: […]
GASTRIN RECEPTOR BINDING IN GUINEA PIG GASTRIC GLANDS
Guinea pig gastric mucosal glands were prepared by the procedure of Berglingh and Obrink Acta Physiol. Scand. 96: 150 (1976) with a slight modification according to Praissman et al. C. J. Receptor Res. 3: (1983). Gastric mucosa from guinea pigs (300-500 g body weight, male Hartley) were washed thoroughly and minced with fine scissors in standard buffer consisting of the following: 130 mM NaCl, 12 mM NaHCO3, 3 mM NaH2 PO4, 3 mM Na2 HPO4, 3 mM K2 HPO4, 2 mM MgSO4, 1 mM CaCl2, 5 mM glucose and 4 mM L-glutamine, 25 mM HEPES at pH 7.4. The minced tissues were washed and then incubated in a 37° C. shaker bath for 40 minutes with the buffer containing 0.1% collagenase and 0.1% BSA and bubbled with 95% O2 and 5% CO2. The tissues were passed twice through a 5 ml glass syringe to liberate the gastric glands, and then filtered through 200 mesh nylon. The filtered glands were centrifuged at 270 g for 5 minutes and washed twice by resuspension and centrifugation.

[3] = 125I-CCK-33, rat pancreas, 37° C., 30 minutes, read-out: IC50 (uM) 125I-CCK Pancreas

| SMILES | IC50 [2] [µM] | IC50 [1, 3] [µM] | further results |
| --- | --- | --- | --- |
| CSCC[C@H](NC(=O)OC(C)(C)C)C(=O)N[C@@H](CC(=O)O)C(=O)N[C@@H](Cc1ccccc1)C(N)=O [Boc-Met-Asp-Phe-NH2] (Boc-Met-Asp-Phe-NH2) |  |  | CCK antagonist activity (CCK receptor): can function as CCK antagonists |
| c1cnc2c(c1)ccc1cccnc12 [o-phenanthroline, reference compound] |  |  | effect on the 125I-CCK receptor binding assay [1]: no effect |
| CCCN(CCC)C(=O)C(CCC(=O)O)NC(=O)c1ccccc1 (centres unmarked) [proglumide] |  |  | gastrin antagonist activity (gastrin): very weak in vitro antagonists |
| CSCC[C@H](N)C(=O)N[C@@H](CC(=O)O)C(=O)N[C@@H](Cc1ccccc1)C(N)=O [Met-Asp-Phe-NH2] (H-Met-Asp-Phe-NH2) |  |  | CCK antagonist activity (CCK receptor): can function as CCK antagonists |
| CNC1=Nc2ccccc2C(c2ccccc2F)=N[C@@H]1Cc1c[nH]c2ccccc12 [Example 4, 2-Methylamino-3(R)-(3'-indolyl)methyl-5-(2'-fluorophenyl)-2H-1,4-benzodiazepine] | > 100 | 4.5 | IC50 (gastrin receptor): 67 µM |
| N#CNC1=Nc2ccccc2C(c2ccccc2F)=N[C@@H]1Cc1c[nH]c2ccccc12 [Example 6, 2-Cyanoamino-3(R)-(3'-indolyl)methyl-5-(2'-fluorophenyl)-2H-1,4-benzodiazepine] | 100 | 2 |  |
| Fc1ccccc1C1=N[C@H](Cc2c[nH]c3ccccc23)C(Nc2ccccc2)=Nc2ccccc21 [Example 1, 2-Phenylamino-3(R)-(3'-indolyl)methyl-5-(2'-fluorophenyl)-2H-1,4-benzodiazepine] | 100 | 34 |  |
| O=S(=O)(F)Cc1ccccc1 [phenylmethane sulfonyl fluoride, reference compound] |  |  | effect on the 125I-CCK receptor binding assay [1]: no effect |
| CCCC(=O)Nc1nc2c(ncn2[C@@H]2O[C@@H]3COP(=O)(O)O[C@H]3[C@H]2OC(=O)CCC)c(=O)[nH]1 [dibutyryl cyclic GMP] |  |  | CCK antagonist activity (CCK receptor): the most potent |
| CSCC[C@H](NC(=O)[C@H](Cc1ccc(OS(=O)(=O)O)cc1)NC(=O)OCc1ccccc1)C(=O)NCC(=O)N[C@@H](Cc1c[nH]c2ccccc12)C(=O)N[C@@H](CCSC)C(=O)N[C@@H](CC(=O)O)C(N)=O [Cbz-Tyr(SO3 H)-Met-Gly-Trp-Met-Asp-NH2] (Cbz-[sY]MGWMD-NH2) |  |  | CCK antagonist activity (CCK receptor): can function as CCK antagonists; also recorded: partial agonist |
| CCCNC1=Nc2ccccc2C(c2ccccc2F)=N[C@@H]1Cc1c[nH]c2ccccc12 [Example 7, 2-Propylamino-3(R)-(3'-indolyl)methyl-5-(2-fluorophenyl)-2H-1,4-benzodiazepine] | > 100 |  | IC50 [1]: 2.7 µM |
| NC1=Nc2ccccc2C(c2ccccc2F)=N[C@@H]1Cc1c[nH]c2ccccc12 [Example 3, 2-Amino-3(R)-(3'-indolyl)methyl-5-(2'-fluorophenyl)-2H-1,4-benzodiazepine] |  |  | IC50 [1]: 1.7 µM |
| O=C(O)CNC1=Nc2ccccc2C(c2ccccc2F)=N[C@@H]1Cc1c[nH]c2ccccc12 [Example 8, 2-Carboxymethylamino-3(R)-(3'-indolyl)methyl-5-(2'-fluorophenyl)-2H-1,4-benzodiazepine] | 31 | 3.6 | IC50 (gastrin receptor): 2.7 µM |
| CCOC(=O)CNC1=Nc2ccccc2C(c2ccccc2F)=N[C@@H]1Cc1c[nH]c2ccccc12 [Example 5, 2-Ethoxycarbonylmethylamino-3(R)-(3'-indolyl)methyl-5-(2'-fluorophenyl)-2H-1,4-benzodiazepine] | 49 | 23 |  |
| CCOC(=O)CNC1=Nc2ccccc2C(c2ccccc2)=NC1NC(=O)Nc1ccc(Cl)cc1 (centres unmarked) [Example 10, N-[3-(((4-Chlorophenyl)aminocarbonyl)amino)-5-phenyl-3H-1,4-benzodiazepin-2-yl]-glycine ethyl ester] |  | 1.4 |  |
| O=C(O)CNC1=Nc2ccccc2C(c2ccccc2)=NC1NC(=O)Nc1ccc(Cl)cc1 (centres unmarked) [Example 9, N-[3-(((4-Chlorophenyl)aminocarbonyl)amino)-5-phenyl-3H-1,4-benzodiazepin-2-yl]-glycine] | 0.11 | 0.069 | IC50 (gastrin receptor): 0.032 µM |
